Reference: patent EP4620466A1, “TRIMETHOXYSTYRYL DERIVATIVES FOR USE IN THE TREATMENT OF PACLITAXEL-RESISTANT CANCER” (Instituto de Investigación Biomédica de Salamanca De la …, priority 2024, dated 2025)

Experiments:
HeLa cells [1] = assay: Cell proliferation assay (XTT), cytostatic activity; type: cell-based; conditions: 72-h treatment, XTT cell proliferation kit
Protocol: […] cells were seeded in 96-well plates and incubated in the presence or the absence of the indicated compounds at concentrations ranging from 10^-5 to 10^-12 M. The cytostatic activity was measured after 72-h treatments using the XTT (sodium 3'-[1-(phenylaminocarbonyl)-3,4-tetrazolium]-bis(4- methoxy-6-nitro)-benzenesulfonic acid hydrate) cell proliferation kit (Roche Molecular Biochemicals; Mannheim, Germany) following the manufacturer's specifications. Each condition was seeded in triplicate, and experiments were repeated three times to calculate IC values by non-linear regression fitting the data.

HeLa cells [2] = assay: Cell proliferation assay with and without verapamil (MDR transporter check); type: cell-based; conditions: for potency increase with addition of verapamil: with verapamil versus without
[3] = Homo sapiens, without verapamil (control), compounds for 72 h, read-out: potency in the absence of verapamil
[4] = read-out: potency in the presence of 10 µM verapamil, incubated with 10 µM verapamil for 2 h, then compounds for 72 h

Row | SMILES | IC50 (HeLa cells [1]; Homo sapiens) [nM] | further results
1 | COc1cc(N(C)S(=O)(=O)c2ccc3c(c2)c(C#N)cn3C)cc(OC)c1OC [Compound 51, 3-Cyano-N,1-dimethyl-N-(3,4,5-trimethoxyphenyl)-1H-indole-5-sulfonamide] | 12.3 | IC50 (HeLa cells [2]; [3]): 12.3 nM; IC50 (HeLa cells [2]; [4]): 10.6 nM
2 | COc1cc(/C=C\c2ccc3c(c2)c(/C=N/O)cn3C)cc(OC)c1OC [Compound 31, (Z + E)-1-methyl-5-(3,4,5-trimethoxystyryl)-1H-indole-3-carbaldehyde oxime] |  | potency increase with addition of verapamil (HeLa cells [2]): more than 10 fold
3 | COc1cc(N(C)S(=O)(=O)c2ccc3c(c2)c(C=O)cn3C)cc(OC)c1OC [Compound 49, 3-Formyl-N,1-dimethyl-N-(3,4,5-trimethoxyphenyl)-1H-indole-5-sulfonamide] | 41 | IC50 (HeLa cells [2]; [3]): 41.2 nM; IC50 (HeLa cells [2]; [4]): 44.7 nM
4 | COc1cc(/C=C\c2ccc3c(c2)c(C=O)cn3C)cc(OC)c1OC [Compound 29, (Z)-1-Methyl-5-(3,4,5-trimethoxystyryl)-1H-indole-3-carbaldehyde] |  | potency increase with addition of verapamil (HeLa cells [2]): more than 10 fold
5 | COc1ccc(CCN(C)CCCC(C#N)(c2ccc(OC)c(OC)c2)C(C)C)cc1OC (stereo not drawn) [Verapamil, verapamil, reference compound] |  | effect on cell proliferation (HeLa cells [2]; verapamil alone at the working concentrations (1 and 10 µM)): no effect
6 | COc1cc(OC)cc(N(C)S(=O)(=O)c2ccc3c(c2)c(C#N)cn3C)c1 [Compound 53, 3-cyano-N-(3,5-dimethoxyphenyl)-N,1-dimethyl-1H-indole-5-sulfonamide] | > 1000 | IC50 (HeLa cells [2]; [3]): 551 nM; IC50 (HeLa cells [2]; [4]): 642 nM
7 | C=C(c1cc(OC)c(OC)c(OC)c1)c1ccc2c(c1)c(C=NN)cn2C [Compound 21, (1-Methyl-5-[1-(3,4,5-trimethoxyphenyl)vinyl]-1H-indol-3-yl)methylene hydrazine] | 38 | 
8 | COc1cc(C(=NO)c2ccc3c(ccn3C)c2)cc(OC)c1OC (mixture of isomers) [Compound 7, (E/Z)-(I-Methyl-1H-indol-5-yl)(3,4,5-trimethoxyphenyl)methanone oxime] |  | IC50 (HeLa cells [1]): 360 nM
9 | C=C(c1cc(Cl)nc(Cl)c1)c1ccc2c(c1)c(C=NO)cn2C [Compound 61, 5-(1-(2,6-dichloropyridin-4-yl)vinyl)-1-methyl-1H-indole-3-carbaldehyde oxime] | > 1000 | 
10 | C=C(c1ccc2c(c1)c(C=NO)cn2C)c1ccc(OC)c(OC)c1OC [Compound 20, 1-Methyl-5-[1-(2,3,4-trimethoxyphenyl)vinyl]-1H-indol-3-carbaldehyde oxime] | 34 | 
11 | COc1cc(OC)cc(N(C)S(=O)(=O)c2ccc3c(c2)c(C=O)cn3C)c1 [Compound 52, N-(3,5-dimethoxyphenyl)-3-formyl-N,1-dimethyl-1H-indole-5-sulfonamide] | > 1000 | IC50 (HeLa cells [2]; [3]): > 1000 nM; IC50 (HeLa cells [2]; [4]): > 1000 nM
12 | C=C(c1cc(OC)c(OC)c(OC)c1)c1ccc2c(c1)c(C(=O)O)cn2C [Compound 16, 1-Methyl-5-(1-(3,4,5-trimethoxyphenyl)vinyl)-1H-indole-3-carboxylic acid] | > 10000 | 
13 | C=C(c1cc(OC)c(OC)c(OC)c1)c1ccc2c(c1)c(C=NO)cn2C [Compound 19, 1-Methyl-5-[1-(3,4,5-trimethoxyphenyl)vinyl]-1H-indole-3-carbaldehyde oxime] | 6.2 | 
14 | C=C(c1ccc2c(c1)c(C#N)cn2C)c1ccc(OC)c(OC)c1OC [Compound 24, 1-Methyl-5-[1-(2,3,4-trimethoxyphenyl)vinyl]-1H-indole-3-carbonitrile] | 32 | 
15 | COc1cc(NS(=O)(=O)c2ccc3c(c2)c(C#N)cn3C)cc(OC)c1OC [Compound 50, 3-Cyano-1-methyl-N-(3,4,5-trimethoxyphenyl)-1H-indole-5-sulfonamide] | 21 | IC50 (HeLa cells [2]; [3]): 21.4 nM; IC50 (HeLa cells [2]; [4]): 25.5 nM
16 | C=C(c1cc(OC)c(OC)c(OC)c1)c1ccc2c(ccn2C)c1 [Compound 5, 1-methyl-5-(1-(3,4,5-trimethoxyphenyl)vinyl)-1H-indole] | 2.7 | 
17 | C=C(c1cc(OC)c(OC)c(OC)c1)c1ccc2c(c1)c(C#N)cn2C [Compound 23, 1-Methyl-5-[1-(3,4,5-trimethoxyphenyl)vinyl]-1H-indole-3-carbonitrile] | 2.9 | 
18 | C=C(c1cc(OC)c(OC)c(OC)c1)c1ccc2c(c1)c(CO)cn2C [Compound 17, 1-Methyl-5-[1-(3,4,5-trimethoxyphenyl)vinyl]-1H-indol-3-ylmethanol] | 310 | 
19 | COc1cc(/C=C\c2ccc3c(c2)c(C#N)cn3C)cc(OC)c1OC [Compound 33, (Z)-1-Methyl-5-(3,4,5-trimethoxystyryl)-1H-indole-3-carbonitrile] |  | potency increase with addition of verapamil (HeLa cells [2]): more than 10 fold
20 | COc1cc(/C=C\c2ccc3c(ccn3C)c2)cc(OC)c1OC [Compound 27, (Z)-1-Methyl-5-[2-(3,4,5-trimethoxyphenyl)vinyl)-1H-indole] | 250 | 
21 | C=C(c1ccc2c(c1)c(C=O)cn2C)c1ccc(OC)c(OC)c1OC [Compound 12, 1-Methyl-5-[1-(2,3,4-trimethoxyphenyl)vinyl]-1H-indole-3-2carbaldehyde] | 32 | 

More lines, main results first:

Row | IC50 (HeLa cells [1]; Homo sapiens) [nM] | SMILES | further results
22 | 2.4 | COc1cc(N(C)S(=O)(=O)c2ccc3c(ccn3C)c2)cc(OC)c1OC [Compound 46, N,1-dimethyl-N-(3,4,5-trimethoxyphenyl)-1H-indole-5-sulfonamide] | IC50 (HeLa cells [2]; [3]): 2.4 nM; IC50 (HeLa cells [2]; [4]): 1.9 nM
23 | 20.1 | COc1cc(OC)cc(N(C)S(=O)(=O)c2ccc3c(ccn3C)c2)c1 [Compound 47, N-(3,5-dimethoxyphenyl)-N,1-dimethyl-1H-indole-5-sulfonamide] | IC50 (HeLa cells [2]; [3]): 551 nM; IC50 (HeLa cells [2]; [4]): 642 nM
24 | 600 | C=C(c1cc(SC)nc(SC)c1)c1ccc2c(c1)c(C(N)=O)cn2C [Compound 78, 5-(1-(2,6-bis(methylsulfanyl)pyridin-4-yl)vinyl)-1-methyl-1H-indole-3-carboxamide] | 
25 | 800 | COc1cc(C(=O)c2ccc3c(c2)c(C#N)cn3C)cc(SC)n1 [Compound 87, 5-(2-methoxy-6-(methylsulfanyl)isonicotinoyl)-1-methyl-1H-indole-3-carbonitrile] | 
26 | > 1000 | Cn1cc(C=NO)c2cc(C(=NO)c3cc(Cl)nc(Cl)c3)ccc21 [Compound 59, 5-((2,6-dichloropyridin-4-yl)(hydroxyimino)methyl)-1-methyl-1H-indole-3-carbaldehyde oxime] | 
27 | > 1000 | COc1cc(C(=O)c2ccc3c(c2)c(C=O)cn3C)cc(SC)n1 [Compound 84, 5-(2-methoxy-6-(methylsulfanyl)isonicotinoyl)-1-methyl-1H-indole-3-carbaldehyde] | 
28 | 600 | CSc1cc(C(=NO)c2ccc3c(ccn3C)c2)cc(N(C)C)n1 [Compound 91, (2-(Dimethylamino)-6-(methylthio)pyridin-4-yl)(1-methyl-1H-indol-5-yl)methanone oxime] | 
29 | 500 | C=C(c1cc(SC)nc(SC)c1)c1ccc2c(ccn2C)c1 [Compound 74, 5-(1-(2,6-Bis(methylsulfanyl)pyridin-4-yl)vinyl)-1-methyl-1H-indole] | 
30 | 60 | CSc1cc(C(=NO)c2ccc3c(c2)c(C#N)cn3C)cc(Cl)n1 (mixture of isomers) [Compound 69, (E/Z)-5-((2-chloro-6-(methylsulfanyl)pyridin-4-yl)(hydroxyimino)methyl)-1-methyl-1H-indole-3-carbonitrile] | 
31 | 76 | COc1ccc(/C(=N\O)c2ccc3c(ccn3C)c2)c(OC)c1OC [Compound 8, Z-(1-methyl-1H-indol-5-yl)(2,3,4-trimethoxyphenyl)methanone oxime] | 
32 | 80 | C=C(c1cc(Cl)nc(SC)c1)c1ccc2c(c1)c(C(=O)O)cn2C [Compound 72, 5-(1-(2-Chloro-6-(methylsulfanyl)pyridin-4-yl)vinyl)-1-methyl-1H-indole-3-carboxylic acid] | 
33 | 700 | C=C(c1cc(SC)nc(N(C)C)c1)c1ccc2c(c1)c(C(=O)O)cn2C [Compound 94, 5-(1-(2-(dimethylamino)-6-(methylthio)pyridin-4-yl)vinyl)-1-methyl-1H-indole-3-carboxylic acid] | 
34 | 300 | CSc1cc(C(=NO)c2ccc3c(ccn3C)c2)cc(Cl)n1 (mixture of isomers) [Compound 66, (E/Z)-(2-chloro-6-(methylsulfanyl)pyridin-4-yl) (1-methyl-1H-indol-5-yl)methanone oxime] | 
35 | 600 | C=C(c1cc(SC)nc(N(C)C)c1)c1ccc2c(c1)c(C(N)=O)cn2C [Compound 97, 5-(1-(2-(dimethylamino)-6-(methylthio)pyridin-4-yl)vinyl)-1-methyl-1H-indole-3-carboxamide] | 
36 | 17 | COc1ccc(C(=O)c2ccc3c(ccn3C)c2)c(OC)c1OC [Compound 4, (1-methyl-1H-indol-5-yl)(2,3,4-trimethoxyphenyl)methanone] | 
37 | 100 | C=C(c1cc(Cl)nc(N(C)C)c1)c1ccc2c(ccn2C)c1 [Compound 99, 6-chloro-N,N-dimethyl-4-(1-(1-methyl-1H-indol-5-yl)vinyl)pyridin-2-amine] | 
38 | > 1000 | COc1ccc(C(O)c2ccc3c(ccn3C)c2)c(OC)c1OC (stereo not drawn) [Compound 2, (1-methyl-1H-indol-5-yl)(2,3,4-trimethoxyphenyl)methanol] | 
39 | > 1000 | C=C(c1cc(Cl)nc(SC)c1)c1ccc2c(c1)c(C(N)=O)cn2C [Compound 70, 5-(1-(2-chloro-6-(methylsulfanyl)pyridin-4-yl)vinyl)-1-methyl-1H indole-3-carboxamide] | 
40 | 600 | C=C(c1cc(OC)nc(SC)c1)c1ccc2c(ccn2C)c1 [Compound 82, 5-(1-(2-methoxy-6-(methylsulfanyl)pyridin-4-yl)vinyl)-1-methyl-1H-indole] | 
